In patent US20250346580A1, “NOVEL PYRIMIDINYL SULFONAMIDE DERIVATIVES” (Hoffmann-La Roche Inc., priority 2023, published 2025):

Key:
[1] = Microsome clearance assay, mouse; type: in vitro ADME; conditions: mouse microsomes 0.5 mg/mL plus NADPH, 37° C., test compound 1 microM; second value of cell
Description: (§1) Microsome Clearance Assay Protocol:
(§2) incubations at a test compound of […] in microsomes (0.5 mg/mL) plus cofactor NADPH are performed in 96 well plates at 37° C. on a TECAN (Tecan Group Ltd, Switzerland) automated liquid handling system. The final concentration of the test compound in the incubation is 1 microM. After a 10 minutes preincubation step of the test compound with the microsomes, the enzymatic reaction is started by the addition of cofactors. At 1, 3, 6, 9, 15, 25, 35 and 45 minutes, aliquots of the incubations are removed and quenched with 1:3 (v/v) acetonitrile containing internal standards. Samples are then cooled and centrifuged before analysis of the supernatant by LC-MS/MS.
(§3) Reference compounds were tested against exemplified compounds for their Microsome Clearance.

[2] = Microsome clearance assay, rat; type: in vitro ADME; conditions: rat microsomes 0.5 mg/mL plus NADPH, 37° C., test compound 1 microM; third value of cell
Description: as §1, §2, §3

[3] = Microsome clearance assay, human; type: in vitro ADME; conditions: human microsomes 0.5 mg/mL plus NADPH, 37° C., test compound 1 microM; first value of cell
Description: as §1, §2, §3

[4] = molecular target: human GPR17 short isoform (Homo sapiens, UniProt Q13304); assay: GPR17 cAMP assay (hGPR17 cAMP); type: cell-based; conditions: CHO-K1 cells stably expressing human GPR17 short isoform; antagonist mode with EC80 of MDL29,951, forskolin 15 μM, TR-FRET cAMP
human GPR17 short isoform, sequence (Q13304 29-367): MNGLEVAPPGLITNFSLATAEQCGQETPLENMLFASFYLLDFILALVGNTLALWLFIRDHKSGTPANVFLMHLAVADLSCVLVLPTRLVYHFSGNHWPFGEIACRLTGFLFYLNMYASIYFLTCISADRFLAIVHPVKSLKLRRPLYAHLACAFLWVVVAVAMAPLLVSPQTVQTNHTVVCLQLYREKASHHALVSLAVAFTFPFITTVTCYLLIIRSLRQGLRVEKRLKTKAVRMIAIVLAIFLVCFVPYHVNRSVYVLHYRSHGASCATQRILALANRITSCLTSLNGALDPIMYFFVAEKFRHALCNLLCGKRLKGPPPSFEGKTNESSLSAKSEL
Description: GPR17 cAMP Assay Protocol:
CHO-K1 cells stably expressing vector containing untagged human GPR17 short isoform (Roche) were cultured at 37° C./5% CO2 in DMEM (Dulbecco's Modified Eagle Medium):F-12 (1:1) supplemented with 10% foetal bovine serum and 400 μg/ml Geneticin.
Changes in intracellular cyclic adenosine monophosphate (cAMP) levels were quantified using the Nano-TRF Detection Assay kit (Roche Diagnostics, Cat. No. 05214386001). This assay allows for direct cAMP quantification in a homogeneous solution. cAMP is detected based on time-resolved fluorescence energy transfer (TR-FRET) and competitive binding of ruthenylated cAMP and endogenous cAMP to an anti-cAMP monoclonal antibody labeled with AlexaFluor-700. The Ruthenium complex serves as the FRET donor and transfers energy to AlexaFluor-700. The FRET signal is inversely proportional to the cAMP concentration.
CHO-GPR17S cells were detached with Accutase and resuspended in assay buffer consisting of Hank's Balanced Salt Solution (HBSS), 10 mM HEPES (4-(2-hydroxyethyl) piperazine-1-ethanesulfonic acid solution) and 0.1% bovine serum albumin (pH 7.4). The cells were seeded in black 384-well plates (Corning) at a density of 10'000 cells/20 μl assay buffer until the addition of compounds.
Test antagonist compounds were serially diluted in dimethyl sulfoxide (DMSO) and spotted in 384-well plates. The compounds were then diluted in HBSS buffer supplemented with an EC80 concentration of MDL29,951 (3-(2-Carboxy-4,6-dichloroindol-3-yl)propionic acid) (GPR17 agonist) plus 3-Isobutyl-1-methylxanthine (IBMX) (0.5 mM final concentration) and added to the cells at room temperature. Forskolin (15 μM final concentration) was added 5 minutes after the test compounds and the cells were incubated at room temperature for 30 minutes. The assay was stopped by adding cAMP detection mix (containing detergents for cell lysis) for 90 minutes at room temperature.
Cellular cAMP was measured using a Paradigm reader (Molecular Devices). The raw data was used to calculate the FRET signal based on the assay's P-factor as per cAMP kit instructions. The data was normalized to the maximal activity of a reference antagonist and dose response curves were fitted to the percent activity of the test compounds using a sigmoidal dose response model (Genedata Screener).

Structure (SMILES)	IC50 [4] [nM]	microsomal CLint at 1 µM [1] [µL/min/mg]	microsomal CLint at 1 µM [2] [µL/min/mg]	microsomal CLint at 1 µM [3] [µL/min/mg]	other results
COc1nc(NS(=O)(=O)c2c[nH]c(-c3ccccc3)c2)nc(OC)c1OCC(F)F [Example 1, N-[5-(2,2-difluoroethoxy)-4,6-dimethoxy-pyrimidin-2-yl]-5-phenyl-1H-pyrrole-3-sulfonamide]	476	–	–	–	Microsomal Clearance mouse [1]: 21 μL/min/mg protein; Microsomal Clearance rat [2]: 81 μL/min/mg protein; Microsomal Clearance human [3]: 10 μL/min/mg protein
COc1nc(NS(=O)(=O)c2c[nH]c(-c3ncccc3F)c2)nc(OC)c1OCCF [Example 7, N-[5-(2-fluoroethoxy)-4,6-dimethoxy-pyrimidin-2-yl]-5-(3-fluoro-2-pyridyl)-1H-pyrrole-3-sulfonamide]	85	–	–	–	Microsomal Clearance mouse [1]: 12 μL/min/mg protein; Microsomal Clearance rat [2]: 32 μL/min/mg protein; Microsomal Clearance human [3]: 10 μL/min/mg protein
COc1nc(NS(=O)(=O)c2c[nH]c(-c3nccs3)c2)nc(OC)c1OC(F)F [Example 14, N-[5-(difluoromethoxy)-4,6-dimethoxy-pyrimidin-2-yl]-5-thiazol-2-yl-1H-pyrrole-3-sulfonamide]	256	–	–	–	Microsomal Clearance mouse [1]: 10 μL/min/mg protein; Microsomal Clearance rat [2]: 50 μL/min/mg protein; Microsomal Clearance human [3]: 10 μL/min/mg protein
COc1nc(NS(=O)(=O)c2c[nH]c(-c3ncccc3Cl)c2)nc(OC)c1OCC(F)F [Example 46, 5-(3-chloro-2-pyridyl)-N-[5-(2,2-difluoroethoxy)-4,6-dimethoxy-pyrimidin-2-yl]-1H-pyrrole-3-sulfonamide]	77	–	–	–	–
COc1nc(NS(=O)(=O)c2c[nH]c(-c3ccncn3)c2)nc(OC)c1OCC(F)F [Example 47, N-[5-(2,2-difluoroethoxy)-4,6-dimethoxy-pyrimidin-2-yl]-5-pyrimidin-4-yl-1H-pyrrole-3-sulfonamide]	1610	–	–	–	–
COc1nc(NS(=O)(=O)c2c[nH]c(-c3cnccn3)c2)nc(OC)c1OCC(F)F [Example 48, N-[5-(2,2-difluoroethoxy)-4,6-dimethoxy-pyrimidin-2-yl]-5-pyrazin-2-yl-1H-pyrrole-3-sulfonamide]	1320	–	–	–	–
COc1nc(NS(=O)(=O)c2c[nH]c(-c3ncccc3C)c2)nc(OC)c1OCC(F)F [Example 49, N-[5-(2,2-difluoroethoxy)-4,6-dimethoxy-pyrimidin-2-yl]-5-(3-methyl-2-pyridyl)-1H-pyrrole-3-sulfonamide]	122	–	–	–	–
COc1nc(NS(=O)(=O)c2c[nH]c(C3CCC3)c2)nc(OC)c1OC(F)F [Example 50, 5-cyclobutyl-N-[5-(difluoromethoxy)-4,6-dimethoxy-pyrimidin-2-yl]-1H-pyrrole-3-sulfonamide]	748	–	–	–	–

Further lines, with some results ahead:

IC50 [4] [nM]	microsomal CLint at 1 µM [1] [µL/min/mg]	microsomal CLint at 1 µM [2] [µL/min/mg]	microsomal CLint at 1 µM [3] [µL/min/mg]	Structure (SMILES)	other results
304	–	–	–	COc1nc(NS(=O)(=O)c2c[nH]c(C3CCC3)c2)nc(OC)c1OCC(F)F [Example 51, 5-cyclobutyl-N-[5-(2,2-difluoroethoxy)-4,6-dimethoxy-pyrimidin-2-yl]-1H-pyrrole-3-sulfonamide]	–
–	136	489	21	COc1nc(OCC(F)F)c(F)nc1NS(=O)(=O)c1c[nH]c(-c2ccccc2)c1 [RE-A]	–
–	43	79	253	N#Cc1ccc(NS(=O)(=O)c2c[nH]c(-c3ncccc3F)c2)c(F)c1 [RE-B]	–
–	238	582	107	O=S(=O)(Nc1cc(F)c(Br)cc1F)c1c[nH]c(-c2ncccc2F)c1 [RE-C]	–
–	35	207	10	O=S(=O)(Nc1cc(F)c(OC(F)F)cc1F)c1c[nH]c(-c2nccs2)c1 [RE-D]	–
